“And” between values parts separate entries of the source, which are not always exact repeats. Equal values may be shown once. “Also recorded” adds a separate entry of the source. Read-outs that look alike come from different tables or passages of the source.
Columns and labels:
tumor cell specimens = assay: differential staining cytotoxicity assay (DiSC), general statements on drug exposure; format: cell-based, human; conditions: for activity in the assay at a 1-hour exposure (in words): must be tested at a continuous exposure
multiple myeloma = assay: differential staining cytotoxicity assay (DiSC), fresh tumor specimens; conditions: metachronous assays, no intervening therapy, patient MM-B, two dates
CLL [1] = conditions: for Treated patients, Sensitive / Untreated patients, Sensitive: sensitive: < 30% cell survival
CML-blast crisis = assay: differential staining cytotoxicity assay (DiSC), fresh tumor specimens; conditions: patient CML-BC, 11/09/82 before and 12/14/82 after V + P
ANLL = assay: as above; format: cell-based, human; conditions: for % of all specimens tested which were "sensitive" in vitro (< 30% cell survival): dexamethasone 0.4, cytarabine 3.3, vincristine […] continuous 4-day exposure, mechlorethamine 3.5, doxorubicin 1.67 μg/ml 1-hour exposure
ALL = conditions: for Treated patients, Resistant / Untreated patients, Resistant / Treated patients, Sensitive / Untreated patients, Sensitive: No. of patients; for Treated patients, Resistant / Untreated patients, Resistant: resistant: > 30% cell survival; for Treated patients, Sensitive / Untreated patients, Sensitive: sensitive: < 30% cell survival; for in vitro activity (in words): active = < 30% cell survival, concentrations of Table 1; for % of all specimens tested which were "sensitive" in vitro (< 30% cell survival): dexamethasone 0.4, cytarabine 3.3, vincristine […] continuous 4-day exposure, mechlorethamine 3.5, doxorubicin 1.67 μg/ml 1-hour exposure
CLL [2] = assay: cells; conditions: Homo sapiens, read-out: average % cell survival in vitro, Vincristine 0.08 µg/ml, continuous exposure; metachronous assays, no intervening therapy
Assorted solid tumors = assay: differential staining cytotoxicity assay (DiSC), fresh tumor specimens; format: cell-based, human; conditions: for % of all specimens tested which were "sensitive" in vitro (< 30% cell survival): dexamethasone 0.4 μg/ml, cytarabine […], continuous 4-day exposure
Small Cell Lung Cancer = assay: as above; format: cell-based, human; conditions: active = < 30% cell survival; concentrations of Table 1
[3] = system: Non-Small Cell Lung Cancer; assay: as above; format: cell-based, human; conditions: active = < 30% cell survival; concentrations of Table 1
[4] = system: non-Hodgkin's lymphoma, multiple myeloma, and blast crisis CML; conditions: data not shown; neoplasms considered together
[5] = Vincristine 0.08 µg/ml, continuous 4-day exposure
[6] = Vincristine 0.08 µg/ml, continuous exposure, metachronous assays, no intervening therapy
[7] = cells from relapsed patients compared with untreated patients
[8] = Dexamethasone 0.4 µg/ml, continuous 4-day exposure
[9] = Dexamethasone 4.0 µg/ml, continuous 4-day exposure
[10] = active = < 30% cell survival, concentrations of Table 1
[11] = No. of patients, Dexamethasone 0.4 µg/ml, continuous 4-day exposure, resistant: > 30% cell survival
[12] = No. of patients, Dexamethasone 0.4 µg/ml, continuous 4-day exposure
[13] = No. of patients, Dexamethasone 4.0 µg/ml, continuous 4-day exposure, resistant: > 30% cell survival
[14] = No. of patients, Dexamethasone 4.0 µg/ml, continuous 4-day exposure
[15] = Cytarabine 1.0 µg/ml, continuous 4-day exposure
[16] = Doxorubicin 1.67 µg/ml, 1-hr exposure

O=P1(N(CCCl)CCCl)NCCCO1 (centres unmarked) [cyclophosphamide]
activity in vitro (in words) (tumor cell specimens): not active in vitro

O=NN(CCCl)C(=O)NCCCl [Carmustine, carmustine]
viability at 11 µg/mL (multiple myeloma; Homo sapiens, 1 h, read-out: average % cell survival in vitro, Carmustine […], 1 hour exposure): 15%

N[C@@H](Cc1ccc(N(CCCl)CCCl)cc1)C(=O)O [Melphalan, melphalan]
Treated patients, Resistant (CLL [1]): 11 and 8

CC[C@]1(O)C[C@H]2CN(CCc3c([nH]c4ccccc34)[C@@](C(=O)OC)(c3cc4c(cc3OC)N(C=O)[C@H]3[C@@](O)(C(=O)OC)[C@H](OC(C)=O)[C@]5(CC)C=CCN6CC[C@]43[C@@H]65)C2)C1 [Vincristine, vincristine]
viability at 0.08 µg/mL (CML-blast crisis; Homo sapiens, read-out: % cell survival, Vincristine 0.08 μg/ml, continuous exposure): 69%
% cell survival (CML-blast crisis; Vincristine 0.08 μg/ml, continuous exposure): 71%
% of all specimens tested which were "sensitive" in vitro (< 30% cell survival) (ANLL): 22% (23)
Treated patients, Resistant (ALL; [5]): 10
Untreated patients, Resistant (ALL; [5]): 6
Treated patients, Sensitive (ALL; [5]): 1
Untreated patients, Sensitive (ALL; [5]): 10
average % cell survival in vitro (ALL; [6]): 44% and 71%
in vitro activity (in words) (ALL): considerably more sensitive
resistance in the assay, relapsed (treated) vs untreated patients (in words) (ALL; [7]): significantly more resistant
% of all specimens tested which were "sensitive" in vitro (< 30% cell survival) (ALL): 56% (25)
activity in the assay at a 1-hour exposure (in words) (tumor cell specimens): not active
viability at 0.08 µg/mL (CLL [2]): 46%
viability at 0.08 µg/mL (multiple myeloma; Homo sapiens, read-out: average % cell survival in vitro, Vincristine 0.08 µg/ml, continuous exposure): 0%
average % cell survival in vitro (multiple myeloma; Vincristine 0.08 µg/ml, continuous exposure): 0%
average % cell survival in vitro (CLL [1]; [6]): 48%

C[C@@H]1C[C@H]2[C@@H]3CCC4=CC(=O)C=C[C@]4(C)[C@@]3(F)[C@@H](O)C[C@]2(C)[C@@]1(O)C(=O)CO [Dexamethasone, dexamethasone]
% cell survival (CML-blast crisis; Dexamethasone 4.0 μg/ml, continuous exposure): 68%
viability at 4 µg/mL (CML-blast crisis; Homo sapiens, read-out: % cell survival, Dexamethasone 4.0 μg/ml, continuous exposure): 73%
% of all specimens tested which were "sensitive" in vitro (< 30% cell survival) (ANLL): 7% (41)
Treated patients, Resistant (ALL; [8]): 7
Untreated patients, Resistant (ALL; [8]): 6
Treated patients, Sensitive (ALL; [8]): 4
Untreated patients, Sensitive (ALL; [8]): 16
Treated patients, Resistant (ALL; [9]): 7
Untreated patients, Resistant (ALL; [9]): 5
Treated patients, Sensitive (ALL; [9]): 3
Untreated patients, Sensitive (ALL; [9]): 13
in vitro activity (in words) (ALL): active
% of all specimens tested which were "sensitive" in vitro (< 30% cell survival) (ALL): 61% (33)
in vitro activity (in words) (Assorted solid tumors; [10]): not active
% of all specimens tested which were "sensitive" in vitro (< 30% cell survival) (Assorted solid tumors): 0% (34)
activity in the assay at a 1-hour exposure (in words) (tumor cell specimens): not active
Treated patients, Resistant (CLL [1]; [11]): 13
Untreated patients, Resistant (CLL [1]; [11]): 18
Treated patients, Sensitive (CLL [1]; [12]): 2
Untreated patients, Sensitive (CLL [1]; [12]): 10
Treated patients, Resistant (CLL [1]; [13]): 10
Untreated patients, Resistant (CLL [1]; [13]): 15
Treated patients, Sensitive (CLL [1]; [14]): 2
Untreated patients, Sensitive (CLL [1]; [14]): 10

Nc1ccn([C@@H]2O[C@H](CO)[C@@H](O)[C@@H]2O)c(=O)n1 [Cytarabine, cytarabine]
in vitro activity (in words) (ANLL; [10]): active
% of all specimens tested which were "sensitive" in vitro (< 30% cell survival) (ANLL): 76% (34)
Treated patients, Resistant (ALL; [15]): 7
Untreated patients, Resistant (ALL; [15]): 4
Treated patients, Sensitive (ALL; [15]): 2
Untreated patients, Sensitive (ALL; [15]): 6
in vitro activity (in words) (ALL): active
% of all specimens tested which were "sensitive" in vitro (< 30% cell survival) (ALL): 68% (19)
resistance in the assay, relapsed (treated) vs untreated patients (in words) (ALL; the higher concentration of cytarabine): significantly more resistant
% of all specimens tested which were "sensitive" in vitro (< 30% cell survival) (Assorted solid tumors): 3% (31)
activity in the assay at a 1-hour exposure (in words) (tumor cell specimens): not active

N.N.[Cl][Pt][Cl] [Cisplatin, cisplatin]
in vitro activity (in words) (Small Cell Lung Cancer): high activity
in vitro activity (in words) [3]: most active agent tested; also recorded: moderate activity
in vitro activity (in words) (CLL [1]; [10]): completely refractory

COc1cccc2c1C(=O)c1c(O)c3c(c(O)c1C2=O)C[C@@](O)(C(=O)CO)C[C@@H]3O[C@H]1C[C@H](N)[C@H](O)[C@H](C)O1 [Doxorubicin, doxorubicin]
resistance in vitro, previously treated vs previously untreated patients (in words) [4]: significantly more resistant
% cell survival (CML-blast crisis; Doxorubicin 1.6 μg/ml, 1 hour exposure, 60 min): 86% and 59%
% of all specimens tested which were "sensitive" in vitro (< 30% cell survival) (ANLL): 48% (27)
Treated patients, Resistant (ALL; [16]): 7
Untreated patients, Resistant (ALL; [16]): 1
Treated patients, Sensitive (ALL; [16]): 4
Untreated patients, Sensitive (ALL; [16]): 10
in vitro activity (in words) (ALL): somewhat more sensitive than ANLL
resistance in the assay, relapsed (treated) vs untreated patients (in words) (ALL; [7]): significantly more resistant
% of all specimens tested which were "sensitive" in vitro (< 30% cell survival) (ALL): 72% (18)
resistance in vitro, previously treated vs previously untreated patients (in words) (CLL [1]; prior treatment with alkylating agents (usually chlorambucil or cyclophosphamide) with or without prednisone): significantly more resistant
